Assay results published in patent US20240308960A1 (Sumitomo Pharma Co., Ltd., priority 2021, published 2024).

Experiments:
[1] = molecular target: T1, Human orexin receptor type 2 (Homo sapiens, UniProt O43614); experiment: Test Example 2: agonist activity for orexin receptor type 2 (aequorin luminescence, intracellular calcium mobilization); assay type: cell-based; design: expressed in transfected cells; host or cells: CHO cells (transient expression); conditions: compound 10 μm; CHO cells transiently expressing human orexin receptor type 2 and apoaequorin; relative percentage of luminescence for the luminescence (100%) of Orexin A (100 pM)
T1 sequence (O43614 1-444): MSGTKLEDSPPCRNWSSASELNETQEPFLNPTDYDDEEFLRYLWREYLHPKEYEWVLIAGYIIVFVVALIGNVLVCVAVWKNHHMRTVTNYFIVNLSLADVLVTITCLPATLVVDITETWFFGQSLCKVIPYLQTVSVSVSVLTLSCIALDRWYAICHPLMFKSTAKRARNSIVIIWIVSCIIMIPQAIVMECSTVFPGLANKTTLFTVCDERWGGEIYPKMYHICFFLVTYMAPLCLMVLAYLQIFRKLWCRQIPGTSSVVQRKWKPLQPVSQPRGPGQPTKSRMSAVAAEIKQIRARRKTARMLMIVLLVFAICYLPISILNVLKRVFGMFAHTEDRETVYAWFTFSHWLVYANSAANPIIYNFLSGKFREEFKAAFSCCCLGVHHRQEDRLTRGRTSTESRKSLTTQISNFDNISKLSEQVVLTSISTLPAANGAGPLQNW
Description: Test Example 2: Measurement of Agonist Activity for Orexin Receptor 2 Type
Human orexin receptor type 2 and apoaequorin were transiently expressed in CHO cells, and the agonist activity was evaluated based on intracellular calcium mobilization with ligand stimulation. The CHO cells transiently-expressed human orexin receptor type 2 and apoaequorin were seeded on a 384-well plate by 2,000 cells/well, and then incubated for 16-22 hours. After the plate was returned to room temperature, Coelenterazine hcp (final concentration: 1 μM) was added to the plate, and the plate was allowed to stand at room temperature for 2 hours. And then, Orexin A (PEPTIDE INSTITUTE, INC., Lot. 671009) or each test compound was added to the plate, and the luminescence of the cells was measured with FDSS7000 (Hamamatsu Photonics K. K.), wherein Orexin A and each test compound were dissolved in DMSO (final concentration: 0.1%), and diluted with a buffer (Hanks, 20 mM HEPES, 0.1% BSA).

[2] = molecular target: T1, Human orexin receptor type 2; experiment: Test Example 1: agonist activity for orexin receptor type 2 (aequorin luminescence, intracellular calcium mobilization); conditions: compound 10 μm; CHO cells transiently expressing human orexin receptor type 2 and apoaequorin; relative percentage of luminescence for the luminescence (100%) of Orexin A (100 μM)

SMILES	Agonist Activity (%) [1] [%]	Agonist Activity (%) [2] [%]
CC(C)N1CCN(c2cccc(Cl)c2NC(=O)N2C[C@H]3C[C@H](c4noc(C5CC5)n4)C[C@H]3C2)CC1 [Example 169, (3aR,5s,6aS)-N-{2-chloro-6-[4-(propan-2-yl)piperazin-1-yl]phenyl}-5-(5-cyclopropyl-1,2,4-oxadiazol-13-yl) hexahydrocyclopenta [c]pyrrol-2 (1H)-carboxamide]	444	–
CC(C)N1CCN(c2cccc(Cl)c2NC(=O)N2C[C@H]3C[C@@H](c4noc(C5CC5)n4)C[C@H]3C2)CC1 [Example 170, (3aR,5r,6aS)-N-{2-chloro-6-[4-(propan-2-yl)piperazin-1-yl]phenyl}-5-(5-cyclopropyl-1,2,4-oxadiazol-13-yl) hexahydrocyclopenta [c]pyrrol-2 (1H)-carboxamide]	357	–
CC(C)N1CC=C(c2cccc(Cl)c2NC(=O)N2CCC(C)(c3noc(C4CC4)n3)CC2)CC1 [Example 130, N-{2-chloro-6-[1-(propan-2-yl)-1,2,3,6-tetrahydropyridin-4-yl]phenyl}-4-(5-cyclopropyl-1,2,4-oxadiazol-3-yl)-4-methylpiperidine-1-carboxamide]	–	142
CCN1C[C@@H]2C[C@H]1CN2c1cccc(F)c1NC(=O)N1CCC(C)(c2noc(C3CC3)n2)CC1 [Example 149, 4-(5-cyclopropyl-1,2,4-oxadiazol-3-yl)-N-{2-[(1S,4S)-5-ethyl-2,5-diazabicyclo[2.2.1]heptan-2-yl]-6-fluorophenyl}-4-methylpiperidine-1-carboxamide]	–	146
CC(C)c1nc(C2(C)CCN(C(=O)Nc3c(F)cccc3N3CCN(C(C)C)CC3)CC2)no1 [Example 20, N-{2-fluoro-6-[4-(propan-2-yl)piperazin-1-yl]phenyl}-4-methyl-4-[5-(propan-2-yl)-1,2,4-oxadiazol-3-yl]piperidine-1-carboxamide]	–	111
Cc1cnc(C2CCN(C(=O)Nc3c(Cl)cccc3N3CCN(C(C)C)CC3)CC2)nc1 [Example 98, N-{2-chloro-6-[4-(propan-2-yl)piperazin-1-yl]phenyl}-4-(5-methylpyrimidin-2-yl)piperidine-1-carboxamide]	–	165
CC(C)N1CCN(c2cccc(F)c2NC(=O)N2CCC(C)(c3cc(C4CC4)on3)CC2)CC1 [Example 54, 4-(5-cyclopropyl-1,2-oxazol-3-yl)-N-{2-fluoro-6-[4-(propan-2-yl)piperazin-1-yl]phenyl}-4-methylpiperidine-1-carboxamide]	–	140
Cc1ccc(N2CCCN(C(=O)Nc3c(Cl)cccc3N3CCN(C(C)C)CC3)CC2)cc1 [Example 99, N-{2-chloro-6-[4-(propan-2-yl)piperazin-1-yl]phenyl}-4-(4-methylphenyl)-1,4-diazepane-1-carboxamide]	–	75
CC(C)N1CCN(c2cccc(F)c2NC(=O)N2CCC(C)(c3noc(C4CC4)n3)CC2)CC1 [Example 45, 4-(5-cyclopropyl-1,2,4-oxadiazol-3-yl)-N-{2-fluoro-6-[4-(propan-2-yl)piperazin-1-yl]phenyl}-4-methylpiperidine-1-carboxamide]	–	127
CCN1CCCN(c2ccccc2NC(=O)N2CCC(c3ccc(C)cc3)CC2)CC1 [Example 153, N-[2-(4-ethyl-1,4-diazepan-1-yl)phenyl]-4-(4-methylphenyl)piperidine-1-carboxamide]	–	54
CC(C)N1CCN(c2cccc(F)c2NC(=O)N2CCC(Oc3ccccc3)CC2)CC1 [Example 27, N-{2-fluoro-6-[4-(propan-2-yl)piperazin-1-yl]phenyl}-4-phenoxypiperidine-1-carboxamide]	–	129
COc1cccc(N2CCN(C(C)C)CC2)c1NC(=O)N1CCC(c2ccc(C)cc2)CC1 [Example 8, N-{2-methoxy-6-[4-(propan-2-yl)piperazin-1-yl]phenyl}-4-(4-methylphenyl)piperidine-1-carboxamide]	–	145
Cc1ccc(C2CCN(C(=O)Nc3c(F)cccc3N3CCN(C(C)C)CC3)CC2)cc1 [Example 9, N-{2-fluoro-6-[4-(propan-2-yl)piperazin-1-yl]phenyl}-4-(4-methylphenyl)piperidine-1-carboxamide]	–	132
Cc1ccc(C2CCN(C(=O)Nc3cccc(F)c3N3CCN(C(C)C)CC3)CC2)cc1 [Example 11, N-{3-fluoro-2-[4-(propan-2-yl)piperazin-1-yl]phenyl}-4-(4-methylphenyl)piperidine-1-carboxamide]	–	142
CC(C)N1CCN(c2cccc(Cl)c2NC(=O)N2CCc3ccccc3CC2)CC1 [Example 97, N-{2-chloro-6-[4-(propan-2-yl)piperazin-1-yl]phenyl}-1,2,4,5-tetrahydro-3H-3-benzazepine-3-carboxamide]	–	69
Cc1nc(C2(C)CCN(C(=O)Nc3c(Cl)cccc3N3CCN(C(C)C)CC3)CC2)no1 [Example 81, N-{2-chloro-6-[4-(propan-2-yl)piperazin-1-yl]phenyl}-4-methyl-4-(5-methyl-1,2,4-oxadiazol-3-yl)piperidine-1-carboxamide]	–	145
CCN1CCN(c2ccccc2NC(=O)N2CCC(c3cc(OC)cc(OC)c3)CC2)CC1 [Example 3, 4-(3,5-dimethoxyphenyl)-N-[2-(4-ethylpiperazin-1-yl)phenyl]piperidine-1-carboxamide]	–	27
CC(C)N1CCN(c2cccc(Cl)c2NC(=O)N2CCC(C)(c3noc(C4CC4(F)F)n3)CC2)CC1 (stereo not drawn) [Example 114, N-{2-chloro-6-[4-(propan-2-yl)piperazin-1-yl]phenyl}-4-[5-(2,2-difluorocyclopropyl)-1,2,4-oxadiazol-3-yl]-4-methylpiperidine-1-carboxamide]	–	155
